Legend:
Tyrosinase = target: T1, Tyrosinase (Agaricus bisporus, UniProt O42713); assay: Inhibition of mushroom tyrosinase
T1 sequence (O42713 whole entry): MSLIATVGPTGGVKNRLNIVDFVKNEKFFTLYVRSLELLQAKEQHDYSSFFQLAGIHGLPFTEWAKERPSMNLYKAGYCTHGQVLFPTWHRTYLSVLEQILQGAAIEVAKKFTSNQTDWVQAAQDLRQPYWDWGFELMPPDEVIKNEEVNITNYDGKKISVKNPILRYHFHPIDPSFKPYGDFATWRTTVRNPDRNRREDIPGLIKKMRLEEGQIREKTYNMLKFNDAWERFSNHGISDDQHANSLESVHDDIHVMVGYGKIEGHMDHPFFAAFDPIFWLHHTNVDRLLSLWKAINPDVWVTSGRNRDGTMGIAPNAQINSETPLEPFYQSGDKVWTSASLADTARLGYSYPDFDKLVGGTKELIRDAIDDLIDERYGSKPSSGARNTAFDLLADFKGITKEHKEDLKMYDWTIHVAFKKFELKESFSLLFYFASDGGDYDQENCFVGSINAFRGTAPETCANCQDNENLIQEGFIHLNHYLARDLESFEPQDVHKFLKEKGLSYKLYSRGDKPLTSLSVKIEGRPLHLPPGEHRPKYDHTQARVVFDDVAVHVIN

[1] = target: T2, Tyrosinase (Agaricus bisporus) (UniProt O42713); assay: Inhibition of mushroom tyrosinase at 0.10 mM
T2 sequence (whole entry): T1 sequence (O42713 whole entry)

[2] = target: T2, Tyrosinase (Agaricus bisporus); assay: Inhibition of mushroom tyrosinase at 1.00 mM
[3] = target: T2, Tyrosinase (Agaricus bisporus); assay: Inhibition of mushroom tyrosinase at 10.0 mM
[4] = target: T2, Tyrosinase (Agaricus bisporus); assay: Inhibition of mushroom tyrosinase at 3.00 mM

With CCOc1cc(=O)c(C[C@@H](OC(=O)/C=C/c2ccc(O)c(O)c2)C(=O)O)coc1=O the IC50 (Tyrosinase) was 80 µM and the inhibition [1] was 52.5%.

In the case of O=C(/C=C/c1ccc(O)c(O)c1)O[C@H](Cc1ccc(O)c(O)c1)C(=O)O [ROSMARINIC ACID], the inhibition [2] is reported as 40.7%, the inhibition [3] is reported as 93.6% and the IC50 (Tyrosinase) is reported as 250 µM. It also gave an inhibition [4] of 69.8%.
